Assays:
Type in all cases: in vivo
[1] = tested on: Echinochloa oryzacola Vasing.; assay: Test Example 1: herbicidal activity, application before weed generation in submerged conditions; settings: Application herbicide amount 320 g/ha; Seventeenth Table
Outline: (§1)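 Rating, on a six-step scale from almost no effect (0) to almost completely withered (5), was made three weeks after pre-emergence treatment. Treatment was surface application to flooded pots at g/ha rates, with plants kept at 25° C. to 30° C.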

Monochoria vaginalis = assay: as above; settings: Application herbicide amount 320 g/ha; Seventeenth Table
Outline: as §1

Scirpus juncoides = assay: as above; settings: Application herbicide amount 320 g/ha; Seventeenth Table
Outline: as §1

[2] = tested on: transplanted Oryza sativa; assay: Test Example 1: effect on crop, application before weed generation in submerged conditions; settings: Application herbicide amount 320 g/ha; Seventeenth Table
Outline: as §1

Abutilon theophrasti = assay: Test Example 4: herbicidal effect by application to foliage (diluvial soil, plastic box); settings: for M (Abutilon theophrasti) herbicidal effect: application to foliage, application herbicide amount 320 g/ha
Outline: (§2)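 Emulsion-formulated compound, diluted to a predetermined g/ha dose, applied by small sprayer to leaves and stems of 14-day-old seedlings grown in sterilized diluvial soil. Effect rated on 0–5 herbicidal-ratio scale three weeks on.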

Alopecurus myosuroides = assay: as above; settings: for J (Alopecurus myosuroides) herbicidal effect: application to foliage, application herbicide amount 320 g/ha
Outline: as §2

Apera spica-venti. = assay: as above; settings: for L (Apera spica-venti.) herbicidal effect: application to foliage, application herbicide amount 320 g/ha
Outline: as §2

Avena fatua = assay: as above; settings: for I (Avena fatua) herbicidal effect: application to foliage, application herbicide amount 320 g/ha
Outline: as §2

Chenopodium album = assay: as above; settings: for O (Chenopodium album) herbicidal effect: application to foliage, application herbicide amount 320 g/ha
Outline: as §2

Digitaria ciliaris = assay: as above; settings: for F (Digitaria ciliaris) herbicidal effect: application to foliage, application herbicide amount 320 g/ha
Outline: as §2

[3] = tested on: Echinochloa crus-galli var. crus-galli; assay: as above; settings: for H (Echinochloa crus-galli var. crus-galli) herbicidal effect: application to foliage, application herbicide amount 320 g/ha
Outline: as §2

Galium spurium = assay: as above; settings: for Q (Galium spurium) herbicidal effect: application to foliage, application herbicide amount 320 g/ha
Outline: as §2

Lolium multiflorum Lam. = assay: as above; settings: for K (Lolium multiflorum Lam.) herbicidal effect: application to foliage, application herbicide amount 320 g/ha
Outline: as §2

Setaria viridis = assay: as above; settings: for G (Setaria viridis) herbicidal effect: application to foliage, application herbicide amount 320 g/ha
Outline: as §2

Veronica persica = assay: as above; settings: for R (Veronica persica) herbicidal effect: application to foliage, application herbicide amount 320 g/ha
Outline: as §2

[4] = tested on: Beta vulgaris ssp. vulgaris; assay: Test Example 4: effect on crop by application to foliage (diluvial soil, plastic box); settings: for f (Beta vulgaris ssp. vulgaris) effect on crop: application to foliage, application herbicide amount 320 g/ha
Outline: as §2

Brassica campestris L. = assay: as above; settings: for g (Brassica campestris L.) effect on crop: application to foliage, application herbicide amount 320 g/ha
Outline: as §2

Glycine max = assay: as above; settings: for c (Glycine max) effect on crop: application to foliage, application herbicide amount 320 g/ha
Outline: as §2

Triticum aestivum = assay: as above; settings: for e (Triticum aestivum) effect on crop: application to foliage, application herbicide amount 320 g/ha
Outline: as §2

Zea mays = assay: as above; settings: for b (Zea mays) effect on crop: application to foliage, application herbicide amount 320 g/ha
Outline: as §2

[5] = tested on: directly sowed Oryza sativa; assay: as above; settings: for d (directly sowed Oryza sativa) effect on crop: application to foliage, application herbicide amount 320 g/ha
Outline: as §2

[6] = Application herbicide amount 320 g/ha
[7] = Application herbicide amount 320 g/ha, effect on crop

Row | Structure (SMILES) | A: Echinochloa oryzicola Vasing. (herbicidal effect grade) [1] | C: Monochoria vaginalis (herbicidal effect grade) (Monochoria vaginalis) | B: Scirpus juncoides (herbicidal effect grade) (Scirpus juncoides) | a: transplanted Oryza sativa (effect on crop grade) [2] | M (Abutilon theophrasti) herbicidal effect (Abutilon theophrasti) | J (Alopecurus myosuroides) herbicidal effect (Alopecurus myosuroides) | L (Apera spica-venti.) herbicidal effect (Apera spica-venti.) | I (Avena fatua) herbicidal effect (Avena fatua) | O (Chenopodium album) herbicidal effect (Chenopodium album) | F (Digitaria ciliaris) herbicidal effect (Digitaria ciliaris) | H (Echinochloa crus-galli var. crus-galli) herbicidal effect [3] | Q (Galium spurium) herbicidal effect (Galium spurium) | K (Lolium multiflorum Lam.) herbicidal effect (Lolium multiflorum Lam.) | G (Setaria viridis) herbicidal effect (Setaria viridis) | R (Veronica persica) herbicidal effect (Veronica persica) | f (Beta vulgaris ssp. vulgaris) effect on crop [4] | g (Brassica campestris L.) effect on crop (Brassica campestris L.) | c (Glycine max) effect on crop (Glycine max) | e (Triticum aestivum) effect on crop (Triticum aestivum) | b (Zea mays) effect on crop (Zea mays) | also measured
1 | Cc1nnc(NC(=O)c2ccc(C(F)(F)F)n3c(C=O)nnc23)o1 [1-068] | 2 (Herbicidal ratio of 20% or more and less than 40%) | 3 (Herbicidal ratio of 40% or more and less than 70%) | 3 (Herbicidal ratio of 40% or more and less than 70%) | 0 (Herbicidal ratio of 5% or less (almost no effect)) | – | – | – | – | – | – | – | – | – | – | – | – | – | – | – | – | M (Abutilon theophrasti; [6]): 3 (Herbicidal ratio of 40% or more and less than 70%); J (Alopecurus myosuroides; [6]): 1 (Herbicidal ratio of 5% or more and less than 20%); L (Apera spica-venti.; [6]): 1 (Herbicidal ratio of 5% or more and less than 20%); I (Avena fatua; [6]): 1 (Herbicidal ratio of 5% or more and less than 20%); O (Chenopodium album; [6]): 5 (Herbicidal ratio of 90% or more (almost completely withered)); F (Digitaria ciliaris; [6]): 5 (Herbicidal ratio of 90% or more (almost completely withered)); H [3, 6]: 5 (Herbicidal ratio of 90% or more (almost completely withered)); Q (Galium spurium; [6]): 3 (Herbicidal ratio of 40% or more and less than 70%); K (Lolium multiflorum Lam.; [6]): 1 (Herbicidal ratio of 5% or more and less than 20%); G (Setaria viridis; [6]): 4 (Herbicidal ratio of 70% or more and less than 90%); R (Veronica persica; [6]): 4 (Herbicidal ratio of 70% or more and less than 90%); f [4, 7]: 4 (Herbicidal ratio of 70% or more and less than 90%); g (Brassica campestris L.; [7]): 4 (Herbicidal ratio of 70% or more and less than 90%); c (Glycine max; [7]): 0 (Herbicidal ratio of 5% or less (almost no effect)); e (Triticum aestivum; [7]): 1 (Herbicidal ratio of 5% or more and less than 20%); b (Zea mays; [7]): 2 (Herbicidal ratio of 20% or more and less than 40%); d [5, 7]: 3 (Herbicidal ratio of 40% or more and less than 70%)
2 | CCOC(=O)Cc1nnc2c(C(=O)Nc3nnc(C)o3)ccc(C(F)(F)F)n12 [1-042] | 2 (Herbicidal ratio of 20% or more and less than 40%) | 2 (Herbicidal ratio of 20% or more and less than 40%) | 2 (Herbicidal ratio of 20% or more and less than 40%) | 0 (Herbicidal ratio of 5% or less (almost no effect)) | 4 (Herbicidal ratio of 70% or more and less than 90%) | 0 (Herbicidal ratio of 5% or less (almost no effect)) | 2 (Herbicidal ratio of 20% or more and less than 40%) | 2 (Herbicidal ratio of 20% or more and less than 40%) | 5 (Herbicidal ratio of 90% or more (almost completely withered)) | 4 (Herbicidal ratio of 70% or more and less than 90%) | 5 (Herbicidal ratio of 90% or more (almost completely withered)) | 3 (Herbicidal ratio of 40% or more and less than 70%) | 0 (Herbicidal ratio of 5% or less (almost no effect)) | 3 (Herbicidal ratio of 40% or more and less than 70%) | 4 (Herbicidal ratio of 70% or more and less than 90%) | 5 (Herbicidal ratio of 90% or more (almost completely withered)) | 3 (Herbicidal ratio of 40% or more and less than 70%) | 1 (Herbicidal ratio of 5% or more and less than 20%) | 0 (Herbicidal ratio of 5% or less (almost no effect)) | 0 (Herbicidal ratio of 5% or less (almost no effect)) | d (directly sowed Oryza sativa) effect on crop [5]: 3 (Herbicidal ratio of 40% or more and less than 70%)
3 | CCOCc1nnc2c(C(=O)Nc3nnc(C)o3)ccc(C(F)(F)F)n12 [1-027] | 5 (Herbicidal ratio of 90% or more (almost completely withered)) | 4 (Herbicidal ratio of 70% or more and less than 90%) | 3 (Herbicidal ratio of 40% or more and less than 70%) | 1 (Herbicidal ratio of 5% or more and less than 20%) | 5 (Herbicidal ratio of 90% or more (almost completely withered)) | 2 (Herbicidal ratio of 20% or more and less than 40%) | 3 (Herbicidal ratio of 40% or more and less than 70%) | 2 (Herbicidal ratio of 20% or more and less than 40%) | 5 (Herbicidal ratio of 90% or more (almost completely withered)) | 5 (Herbicidal ratio of 90% or more (almost completely withered)) | 5 (Herbicidal ratio of 90% or more (almost completely withered)) | 3 (Herbicidal ratio of 40% or more and less than 70%) | 1 (Herbicidal ratio of 5% or more and less than 20%) | 4 (Herbicidal ratio of 70% or more and less than 90%) | 5 (Herbicidal ratio of 90% or more (almost completely withered)) | 5 (Herbicidal ratio of 90% or more (almost completely withered)) | 4 (Herbicidal ratio of 70% or more and less than 90%) | 1 (Herbicidal ratio of 5% or more and less than 20%) | 2 (Herbicidal ratio of 20% or more and less than 40%) | 0 (Herbicidal ratio of 5% or less (almost no effect)) | d (directly sowed Oryza sativa) effect on crop [5]: 5 (Herbicidal ratio of 90% or more (almost completely withered))
4 | Cc1nnc(NC(=O)c2ccc(C(F)(F)F)n3c(CS(C)(=O)=O)nnc23)o1 [1-037] | 0 (Herbicidal ratio of 5% or less (almost no effect)) | 3 (Herbicidal ratio of 40% or more and less than 70%) | 2 (Herbicidal ratio of 20% or more and less than 40%) | 0 (Herbicidal ratio of 5% or less (almost no effect)) | 5 (Herbicidal ratio of 90% or more (almost completely withered)) | 2 (Herbicidal ratio of 20% or more and less than 40%) | 3 (Herbicidal ratio of 40% or more and less than 70%) | 3 (Herbicidal ratio of 40% or more and less than 70%) | 5 (Herbicidal ratio of 90% or more (almost completely withered)) | 5 (Herbicidal ratio of 90% or more (almost completely withered)) | 4 (Herbicidal ratio of 70% or more and less than 90%) | 4 (Herbicidal ratio of 70% or more and less than 90%) | 2 (Herbicidal ratio of 20% or more and less than 40%) | 4 (Herbicidal ratio of 70% or more and less than 90%) | 5 (Herbicidal ratio of 90% or more (almost completely withered)) | 5 (Herbicidal ratio of 90% or more (almost completely withered)) | 4 (Herbicidal ratio of 70% or more and less than 90%) | 1 (Herbicidal ratio of 5% or more and less than 20%) | 3 (Herbicidal ratio of 40% or more and less than 70%) | 0 (Herbicidal ratio of 5% or less (almost no effect)) | d (directly sowed Oryza sativa) effect on crop [5]: 3 (Herbicidal ratio of 40% or more and less than 70%)

— patent US9708314B2, “Heterocyclic amide compound” (NISSAN CHEMICAL INDUSTRIES, LTD., priority 2013, dated 2017)
